Results as given in the supplement of paper PMC10307832.

Tests used:
Experiment in all cases: relative viability (nuclei count vs DMSO), 5 days (fraction); higher = more cells survive
CAP-232 + Navitoclax = compound: C[C@H]([C@@H](C(=O)N)NC(=O)[C@@H]1CSSC[C@@H](C(=O)N[C@H](C(=O)N[C@@H](C(=O)N[C@H](C(=O)N1)CCCCN)CC2=CNC3=CC=CC=C32)CC4=CC=C(C=C4)O)NC(=O)[C@@H](CC5=CC=CC=C5)N)O [CAP-232] + CC1(C)CCC(c2ccc(Cl)cc2)=C(CN2CCN(c3ccc(C(=O)NS(=O)(=O)c4ccc(N[C@H](CCN5CCOCC5)CSc5ccccc5)c(S(=O)(=O)C(F)(F)F)c4)cc3)CC2)C1 [Navitoclax] (partner 0.5 µM)
Outline: (§1)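 Dosing by pin tool came one day after lung cancer cell lines were seeded in 1536-well plates, using either one drug or a fixed anchor-drug dose plus five library-drug doses (not always all listed) in √10 steps. After 5 days, nuclei were counted on 4× images. Relative viability is treated-well nuclei count divided by vehicle-well nuclei count, and values are medians of duplicate plates.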

CAP-232 + Foretinib = compound: C[C@H]([C@@H](C(=O)N)NC(=O)[C@@H]1CSSC[C@@H](C(=O)N[C@H](C(=O)N[C@@H](C(=O)N[C@H](C(=O)N1)CCCCN)CC2=CNC3=CC=CC=C32)CC4=CC=C(C=C4)O)NC(=O)[C@@H](CC5=CC=CC=C5)N)O [CAP-232] + COc1cc2c(Oc3ccc(NC(=O)C4(C(=O)Nc5ccc(F)cc5)CC4)cc3F)ccnc2cc1OCCCN1CCOCC1 [Foretinib] (partner 0.25 µM)
Outline: as §1

CAP-232 + Tozasertib = compound: C[C@H]([C@@H](C(=O)N)NC(=O)[C@@H]1CSSC[C@@H](C(=O)N[C@H](C(=O)N[C@@H](C(=O)N[C@H](C(=O)N1)CCCCN)CC2=CNC3=CC=CC=C32)CC4=CC=C(C=C4)O)NC(=O)[C@@H](CC5=CC=CC=C5)N)O [CAP-232] + Cc1cc(Nc2cc(N3CCN(C)CC3)nc(Sc3ccc(NC(=O)C4CC4)cc3)n2)n[nH]1 [Tozasertib] (partner 0.1 µM)
Outline: as §1

CAP-232 + Dasatinib = compound: C[C@H]([C@@H](C(=O)N)NC(=O)[C@@H]1CSSC[C@@H](C(=O)N[C@H](C(=O)N[C@@H](C(=O)N[C@H](C(=O)N1)CCCCN)CC2=CNC3=CC=CC=C32)CC4=CC=C(C=C4)O)NC(=O)[C@@H](CC5=CC=CC=C5)N)O [CAP-232] + Cc1nc(Nc2ncc(C(=O)Nc3c(C)cccc3Cl)s2)cc(N2CCN(CCO)CC2)n1 [Dasatinib] (partner 0.075 µM)
Outline: as §1

CAP-232 + Decitabine = compound: C[C@H]([C@@H](C(=O)N)NC(=O)[C@@H]1CSSC[C@@H](C(=O)N[C@H](C(=O)N[C@@H](C(=O)N[C@H](C(=O)N1)CCCCN)CC2=CNC3=CC=CC=C32)CC4=CC=C(C=C4)O)NC(=O)[C@@H](CC5=CC=CC=C5)N)O [CAP-232] + Nc1ncn([C@H]2C[C@H](O)[C@@H](CO)O2)c(=O)n1 [Decitabine] (partner 2 µM)
Outline: as §1

| Cell Line | relative viability (CAP-232 + Navitoclax; first compound 0.4 µM) | relative viability (CAP-232 + Navitoclax; first compound 1.265 µM) | relative viability (CAP-232 + Navitoclax; first compound 4 µM) | relative viability (CAP-232 + Navitoclax; first compound 12.65 µM) | relative viability (CAP-232 + Foretinib; first compound 0.4 µM) | relative viability (CAP-232 + Foretinib; first compound 1.265 µM) | relative viability (CAP-232 + Foretinib; first compound 4 µM) | relative viability (CAP-232 + Foretinib; first compound 12.65 µM) | relative viability (CAP-232 + Tozasertib; first compound 0.4 µM) | relative viability (CAP-232 + Tozasertib; first compound 1.265 µM) | relative viability (CAP-232 + Tozasertib; first compound 4 µM) | relative viability (CAP-232 + Tozasertib; first compound 12.65 µM) | relative viability (CAP-232 + Dasatinib; first compound 0.4 µM) | relative viability (CAP-232 + Dasatinib; first compound 1.265 µM) | relative viability (CAP-232 + Dasatinib; first compound 4 µM) | relative viability (CAP-232 + Dasatinib; first compound 12.65 µM) | relative viability (CAP-232 + Decitabine; first compound 0.4 µM) | relative viability (CAP-232 + Decitabine; first compound 1.265 µM) | relative viability (CAP-232 + Decitabine; first compound 4 µM) | relative viability (CAP-232 + Decitabine; first compound 12.65 µM) |
| --- | --- | --- | --- | --- | --- | --- | --- | --- | --- | --- | --- | --- | --- | --- | --- | --- | --- | --- | --- | --- |
| NCI-H2023 | 1.15 | 1 | 1.06 | 0.579 | 0.899 | 0.946 | 0.766 | 0.294 | 0.348 | 0.332 | 0.379 | 0.139 | 0.696 | 0.598 | 0.608 | 0.137 | 0.242 | 0.2 | 0.239 | 0.153 |
| NCI-H2085 | 1.18 | 1.06 | 1.15 | 1.15 | 0.933 | 0.87 | 1.1 | 0.998 | 0.94 | 0.816 | 0.827 | 0.844 | 0.232 | 0.193 | 0.223 | 0.19 | 0.56 | 0.542 | 0.511 | 0.545 |
| NCI-H2087 | 1.19 | 1.16 | 1.02 | 0.616 | 1.17 | 1.2 | 1.1 | 0.665 | 0.193 | 0.212 | 0.221 | 0.311 | 0.681 | 0.969 | 0.757 | 0.737 | 0.265 | 0.261 | 0.276 | 0.238 |
| NCI-H2126 | 0.864 | 0.804 | 0.843 | 0.851 | 1.34 | 1.33 | 1.63 | 1.11 | 0.801 | 0.799 | 0.885 | 0.822 | 0.639 | 0.585 | 0.704 | 0.571 | 0.488 | 0.612 | 0.618 | 0.614 |
| NCI-H2170 | 0.68 | 0.573 | 0.578 | 0.603 | 1 | 1.04 | 1.02 | 1.05 | 0.852 | 0.667 | 0.615 | 0.73 | 0.684 | 0.558 | 0.557 | 0.58 | 0.496 | 0.492 | 0.492 | 0.486 |
| NCI-H2347 | 0.834 | 0.951 | 0.718 | 0.72 | 0.804 | 0.524 | 1.11 | 1.05 | 0.564 | 0.545 | 0.517 | 0.521 | 0.28 | 0.285 | 0.342 | 0.292 | 0.648 | 0.589 | 0.555 | 0.544 |
| NCI-H2405 | 0.821 | 1.07 | 0.795 | 0.562 | 1.04 | 1.11 | 1.05 | 0.79 | 0.728 | 0.751 | 0.761 | 0.683 | 0.233 | 0.203 | 0.196 | 0.208 | 0.715 | 0.752 | 0.796 | 0.578 |
| NCI-H3122 | 1.01 | 0.988 | 1.02 | 1.03 | 0.91 | 0.97 | 0.795 | 1.03 | 0.344 | 0.36 | 0.292 | 0.252 | 0.781 | 0.804 | 0.847 | 0.833 | 0.392 | 0.364 | 0.458 | 0.426 |
| PC-3 [JPC-3] | 0.827 | 0.801 | 0.725 | 0.698 | 1.1 | 1.02 | 1.05 | 0.98 | 1.05 | 0.949 | 0.924 | 0.91 | 1.08 | 1.06 | 1.08 | 0.908 | 0.738 | 0.895 | 0.821 | 0.864 |
| PC-14 | 0.93 | 1.02 | 1.16 | 0.848 | 1.06 | 0.939 | 1.06 | 0.86 | 0.644 | 0.575 | 0.542 | 0.565 | 0.211 | 0.256 | 0.253 | 0.129 | 0.215 | 0.191 | 0.205 | 0.151 |
| RERF-LC-KJ | 1.05 | 1.08 | 1.02 | 0.703 | 0.87 | 0.993 | 0.951 | 0.884 | 0.562 | 0.444 | 0.433 | 0.351 | 0.695 | 0.871 | 0.735 | 0.27 | 0.659 | 0.758 | 0.79 | 0.41 |
| SK-LU-1 | 0.911 | 0.998 | 1.12 | 0.863 | 0.759 | 0.937 | 0.913 | 0.652 | 0.309 | 0.314 | 0.289 | 0.203 | 0.174 | 0.176 | 0.158 | 0.17 | 0.628 | 0.622 | 0.768 | 0.469 |
| SK-MES-1 | 1.28 | 1.17 | 1.45 | 1.1 | 0.935 | 1.04 | 0.95 | 0.771 | 0.903 | 0.893 | 0.905 | 0.774 | 0.339 | 0.317 | 0.341 | 0.203 | 0.452 | 0.344 | 0.384 | 0.274 |
| SW 1573 | 0.912 | 1.1 | 0.988 | 0.635 | 0.873 | 0.836 | 0.903 | 1.03 | 0.185 | 0.207 | 0.189 | 0.126 | 0.416 | 0.493 | 0.603 | 0.0706 | 0.48 | 0.534 | 0.45 | 0.169 |
| UMC-11 | 0.317 | 0.307 | 0.295 | 0.297 | 1.09 | 1.1 | 1.12 | 0.977 | 0.202 | 0.191 | 0.214 | 0.17 | 0.621 | 0.494 | 0.587 | 0.316 | 0.55 | 0.55 | 0.581 | 0.671 |
